Test results as given in ChEMBL document CHEMBL4130390, “Crystal structure of Porphyromonas gingivalis dipeptidyl peptidase 4 and structure-activity relationships based on inhibitor profiling” (Eur J Med Chem, 2017).

Legend:
Dipeptidyl peptidase IV = Dipeptidyl peptidase IV (Porphyromonas gingivalis, UniProt O31048); test: Inhibition of Porphyromonas gingivalis N-terminal His-tagged DPP4 expressed in Escherichia coli using Gly-Pro-p-nitroanilide as substrate
[1] = target: Dipeptidyl peptidase IV (Porphyromonas gingivalis) (UniProt O31048); test: Inhibition of Porphyromonas gingivalis N-terminal His-tagged DPP4 expressed in Escherichia coli at 10 uM using Gly-Pro-p-nitroanilide as substrate relative to control
[2] = target: Dipeptidyl peptidase IV (Porphyromonas gingivalis) (UniProt O31048); test: Inhibition of Porphyromonas gingivalis N-terminal His-tagged DPP4 expressed in Escherichia coli at 100 uM using Gly-Pro-p-nitroanilide as substrate relative to control
[3] = Selectivity index, ratio of IC50 for human DPP4 to IC50 for Porphyromonas gingivalis N-terminal His-tagged DPP4 expressed in Escherichia coli

Dipeptidyl peptidase IV, sequence (O31048 20-723 limits assumed): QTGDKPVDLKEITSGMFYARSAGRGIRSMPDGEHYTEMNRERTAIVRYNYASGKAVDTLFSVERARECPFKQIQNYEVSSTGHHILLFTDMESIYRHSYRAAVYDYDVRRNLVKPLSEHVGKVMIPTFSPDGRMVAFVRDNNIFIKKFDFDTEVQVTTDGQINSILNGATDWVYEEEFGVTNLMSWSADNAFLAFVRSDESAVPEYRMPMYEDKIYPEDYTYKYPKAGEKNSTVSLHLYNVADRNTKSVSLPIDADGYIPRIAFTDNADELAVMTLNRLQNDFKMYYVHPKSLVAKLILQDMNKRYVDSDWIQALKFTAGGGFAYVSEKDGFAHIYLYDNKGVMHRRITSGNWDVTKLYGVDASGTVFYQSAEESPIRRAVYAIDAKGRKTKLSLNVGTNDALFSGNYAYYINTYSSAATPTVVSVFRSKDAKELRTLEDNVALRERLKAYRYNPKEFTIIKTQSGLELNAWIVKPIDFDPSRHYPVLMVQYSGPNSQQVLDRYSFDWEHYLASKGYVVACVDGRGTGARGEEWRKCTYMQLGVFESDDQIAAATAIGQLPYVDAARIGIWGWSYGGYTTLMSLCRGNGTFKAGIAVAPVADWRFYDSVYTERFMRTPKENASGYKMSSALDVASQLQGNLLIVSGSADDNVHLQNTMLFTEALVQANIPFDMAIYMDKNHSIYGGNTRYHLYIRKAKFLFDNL
Dipeptidyl peptidase IV (Porphyromonas gingivalis), sequence (O31048 20-723 limits assumed): as above

SMILES | IC50 (Dipeptidyl peptidase IV) | inhibition [1] [%] | inhibition [2] [%] | IC50 (Dipeptidyl peptidase IV; read-out: IC50) [µM] | Ratio IC50 [3]
CCC(C)C(N)C(=O)N1Cc2ccc(F)cc2C1 (configuration not stated) | IC50 10-100 uM | > 50 | < 50 |  | 
CCC(C)C(N)C(=O)N1CC=CCC1 (configuration not stated) | IC50 10-100 uM | > 50 | < 50 |  | 
N#C[C@@H]1C[C@H](N=[N+]=[N-])CN1C(=O)[C@@H](N)CCC(=O)NCCN |  | > 50 | < 50 | 0.8 | 0.5
NC(CCCCN(Cc1ccccc1)Cc1ccccc1)C(=O)N1CCCC1 (configuration not stated) |  | > 50 | < 50 | 3.4 | 0.88
NC(CCCCNC(=O)Oc1ccccc1)C(=O)N1CCCC1 (configuration not stated) | IC50 10-100 uM | > 50 | < 50 |  | 
NCCNC(=O)CCC(N)Cc1ccccc1 (configuration not stated) | IC50 10-100 uM | > 50 | < 50 |  | 
NC(CCCCN(Cc1ccccc1)Cc1ccccc1)C(=O)N1Cc2ccccc2C1 (configuration not stated) | IC50 10-100 uM | > 50 | < 50 |  | 
CC(=O)NCCCCC(N)C(=O)N1CCCC1 (configuration not stated) | IC50 10-100 uM | > 50 | < 50 |  | 
CC[C@H](C)[C@H](N)C(=O)N1CCSC1 |  | > 50 |  | 19 | 
NCCCCC(N)C(=O)N1Cc2ccccc2C1 (configuration not stated) | IC50 10-100 uM | > 50 | < 50 |  | 
CN(CCCCC(N)C(=O)N1CCCC1)Cc1ccccc1 (configuration not stated) | IC50 10-100 uM | > 50 | < 50 |  | 
C=C1CC(C)N(C(=O)C(N)CCC(=O)N2CCN(C(c3ccc(F)cc3)c3ccc(F)cc3)CC2)C1 (configuration not stated) | IC50 10-100 uM | > 50 | < 50 |  | 
NC(CCCCNC(=O)c1ccccc1)C(=O)N1CCCC1 (configuration not stated) | IC50 10-100 uM | > 50 | < 50 |  | 
CC[C@H](C)[C@H](N)C(=O)N1CCC(F)C1 (some centres not stated) | IC50 10-100 uM | > 50 | < 50 |  | 
N#CC1CC(N=[N+]=[N-])CN1C(=O)C1CC(NCc2ccc3ccccc3c2)CN1 (configuration not stated) | IC50 10-100 uM | > 50 | < 50 |  | 
N[C@@H](CC(=O)N1CCn2c(nnc2C(F)(F)F)C1)Cc1cc(F)c(F)cc1F [SITAGLIPTIN] |  | > 50 | < 50 | 18 | 
N#C[C@@H]1CCCN1C(=O)[C@@H](N)CCCCNC(=O)OCc1ccccc1 |  | > 50 | < 50 | 1.5 | 0.02
CC(C)C(N)C(=O)N1CCCC1 (configuration not stated) |  | > 50 | < 50 | 19 | 
CC[C@H](C)[C@H](N)C(=O)N1CCCC1 | IC50 10-100 uM | > 50 | < 50 |  | 
NC(C(=O)N1Cc2ccccc2C1)C1CCCCC1 (configuration not stated) | IC50 10-100 uM | > 50 | < 50 |  | 
CC[C@@H](C)[C@H](N)C(=O)N1Cc2ccccc2C1 | IC50 10-100 uM | > 50 |  |  | 

SMILES | IC50 (Dipeptidyl peptidase IV) | inhibition [1] [%] | inhibition [2] [%] | IC50 (Dipeptidyl peptidase IV; read-out: IC50) [µM] | Ratio IC50 [3]
CCC(C)C(N)C(=O)N1Cc2ccccc2C1 (configuration not stated) | IC50 10-100 uM | > 50 | < 50 |  | 
CCC(C)C(N)C(=O)N1CCSC1 (configuration not stated) | IC50 10-100 uM | > 50 | < 50 |  | 
CC[C@H](C)[C@H](N)C(=O)N1C[C@@H](N=[N+]=[N-])C[C@H]1C#N |  | > 50 | < 50 | 0.31 | 1.1
NC(CC(=O)N1CCN(C(c2ccc(F)cc2)c2ccc(F)cc2)CC1)C(=O)N1Cc2ccc(F)cc2C1 (configuration not stated) |  | > 50 | < 50 | 22 | 2.7
Cc1ccc(S(=O)(=O)NCCCCC(N)C(=O)N2CCCC2)cc1 (configuration not stated) | IC50 10-100 uM | > 50 | < 50 |  | 
N#C[C@@H]1CCCN1C(=O)[C@@H](N)CCCCN |  | > 50 | < 50 | 1.6 | 0.16 to 0.2
NC(CC(=O)N1CCN(C(c2ccc(F)cc2)c2ccc(F)cc2)CC1)C(=O)N1CCC(C(F)(F)F)C1 (configuration not stated) | IC50 10-100 uM | > 50 | < 50 |  | 
NC(CCCCNC(=O)OCc1ccccc1)C(=O)N1CCSC1 (configuration not stated) |  | > 50 | < 50 | 22 | 0.17
NC(CCCCNCc1ccccc1)C(=O)N1Cc2ccccc2C1 (configuration not stated) |  | > 50 | < 50 | 11 | > 4.5
CCC(C)C(N)C(=O)N1CCC(Cl)C1 (configuration not stated) | IC50 10-100 uM | > 50 | < 50 |  | 
O=C(C1CC(NCc2ccc3ccccc3c2)CN1)N1Cc2ccccc2C1 (configuration not stated) | IC50 10-100 uM | > 50 | < 50 |  | 
CS(=O)(=O)NCCCCC(N)C(=O)N1CCCC1 (configuration not stated) | IC50 10-100 uM | > 50 | < 50 |  | 
CC1CC(N=[N+]=[N-])CN1C(=O)C(N)CCC(=O)N1CCN(Cc2ccc(F)cc2)CC1 (configuration not stated) |  | > 50 | < 50 | 2.4 | 0.425
N#C[C@@H]1C[C@H](N=[N+]=[N-])CN1C(=O)[C@@H](N)CCCCN |  | > 50 | < 50 | 0.33 | 6.58 to 6.7
CC1C[C@@H](C#N)N(C(=O)[C@@H](N)CC(=O)N2CCN(C(c3ccc(F)cc3)c3ccc(F)cc3)CC2)C1 (some centres not stated) | IC50 10-100 uM | > 50 | < 50 |  | 
C=C1CCN(C(=O)C(N)C(C)CC)C1 (configuration not stated) | IC50 10-100 uM | > 50 | < 50 |  | 
CC(O)C(N)C(=O)N1CCCC1 (configuration not stated) |  | > 50 | < 50 | 100 | 
CNCCCCC(N)C(=O)N1CCCC1 (configuration not stated) |  | > 50 | < 50 | 9.4 | 0.52
CC[C@@H](C)[C@@H](N)C(=O)N1CCC(C#N)C1 (some centres not stated) | IC50 10-100 uM | > 50 | < 50 |  | 
NC(CCCNC(=NC(=O)OCc1ccccc1)NC(=O)OCc1ccccc1)C(=O)N1CCCC1 (configuration not stated) | IC50 10-100 uM | > 50 | < 50 |  | 
CCC(C)C(N)C(=O)N1CC=CC1 (configuration not stated) | IC50 10-100 uM | > 50 | < 50 |  | 

SMILES | IC50 (Dipeptidyl peptidase IV) | inhibition [1] [%] | inhibition [2] [%] | IC50 (Dipeptidyl peptidase IV; read-out: IC50) [µM] | Ratio IC50 [3]
N#C[C@@H]1C[C@H](N=[N+]=[N-])CN1C(=O)[C@@H](N)CCC(=O)N1CCNCC1 |  | > 50 | < 50 | 0.48 | 1.2
CCCCC(N)C(=O)N1CCCC1 (configuration not stated) | IC50 10-100 uM | > 50 | < 50 |  | 
CC1CC(N=[N+]=[N-])CN1C(=O)C(N)CCC(=O)N1CCN(C(c2ccc(F)cc2)c2ccc(F)cc2)CC1 (configuration not stated) |  | > 50 | < 50 | 8 | 0.25
NC(CC(=O)N1CCN(C(c2ccc(F)cc2)c2ccc(F)cc2)CC1)C(=O)N1Cc2ccccc2C1 (configuration not stated) | IC50 10-100 uM | > 50 | < 50 |  | 
NC(CC(=O)N1CCN(C(c2ccccc2)c2ccc(Cl)cc2)CC1)C(=O)N1Cc2ccc(F)cc2C1 (configuration not stated) |  | > 50 | < 50 | 17 | > 5.9
CC#CCn1c(N2CCNCC2)nc2c1c(=O)n(Cc1nc(C)c3ccccc3n1)c(=O)n2C | IC50 10-100 uM | > 50 | < 50 |  | < 0.002
CC(C)[C@H](N)C(=O)N1CCCC1B(O)O (some centres not stated) |  | > 50 | < 50 | 0.14 | 
CCC(C)C(N)C(=O)N1CCC(C)C1 (configuration not stated) | IC50 10-100 uM | > 50 | < 50 |  | 
CC[C@@H](C)[C@H](N)C(=O)N1C[C@H](N=[N+]=[N-])C[C@H]1C#N | IC50 10-100 uM | > 50 | < 50 |  | 
CCC(C)C(N)C(=O)N1CCCC1 (configuration not stated) |  | > 50 | < 50 | 22 | 0.18
NC(CC(=O)N1CCN(C(c2ccccc2)c2ccc(Cl)cc2)CC1)C(=O)N1Cc2ccccc2C1 (configuration not stated) | IC50 10-100 uM | > 50 | < 50 |  | 
N#CC1CC(N=[N+]=[N-])CN1C(=O)C(N)CCCCN(Cc1ccc2ccccc2c1)Cc1ccc2ccccc2c1 (configuration not stated) |  | > 50 | < 50 | 0.58 | 
NC(CCCCNC(=O)Nc1ccccc1)C(=O)N1CCCC1 (configuration not stated) | IC50 10-100 uM | > 50 | < 50 |  | 
C=C1CCN(C(=O)C(N)CC(=O)N2CCN(C(c3ccc(F)cc3)c3ccc(F)cc3)CC2)C1 (configuration not stated) | IC50 10-100 uM | > 50 | < 50 |  | 
CCC(C)C(N)C(=O)N1CCC(N=[N+]=[N-])C1 (configuration not stated) | IC50 10-100 uM | > 50 | < 50 |  | 
N[C@@H](CC(=O)N1CCN(C(c2ccc(F)cc2)c2ccc(F)cc2)CC1)C(=O)N1CCCCC1 | IC50 10-100 uM | > 50 | < 50 |  | 
N=C(N)NCCCC(N)C(=O)N1CCCC1 (configuration not stated) | IC50 10-100 uM | > 50 | < 50 |  | 
NC(CCCCNCc1ccc2ccccc2c1)C(=O)N1Cc2ccccc2C1 (configuration not stated) | IC50 10-100 uM | > 50 | < 50 |  | 
NC(CCCNC(=O)OCc1ccccc1)C(=O)N1CCCC1 (configuration not stated) | IC50 10-100 uM | > 50 | < 50 |  | 
CC(C)[C@H](N)C(=O)N1CCCC1 |  | > 50 |  | 29 | 
CC1CCN(C(=O)C(N)CC(=O)N2CCN(C(c3ccc(F)cc3)c3ccc(F)cc3)CC2)C1 (configuration not stated) | IC50 10-100 uM | > 50 | < 50 |  | 
